Each structure is given as a SMILES string. Where two headings read alike, the source gives them in different places. A value given as a limit tells only on which side of the number the result lay.

In assay [1] the test system is human pancreatic islet beta cells. Put plainly: Beta cell proliferation in human islet microtissues (Examples 107, 110). The class given is cell-based. On the procedure:
Human islet microtissues were aggregated for 5 days and then released into ultra-low attachment plates. Half of the plates were maintained in standard culture medium (5.5 mM glucose), and half were cultured in high-glucose culture medium (GTX, 8 mM glucose) starting at Day 6, for the duration of the whole experiment. Starting on Day 9 (after 3 days of GTX pre-treatment for the relevant plates), dosing with compounds was initiated, using a Tecan D300e Digital Dispenser. DMSO was normalized by volume across all wells. Media were exchanged and compounds were redosed every 2-3 days throughout the experiment. Compound dosing was randomized; to avoid compound cross-contamination between wells, all medium exchanges were performed using 96-well deep well plates with pipette tip exchange.
FIG. 38 provides human pancreatic islet beta cell proliferation on Day 14 and Day 21. In FIG. 38, A is ATP content; B is proliferating beta cell fraction; and C is beta cell fraction. Upper graphs are standard media, and lower graphs are high glucose media. Data represents mean+−SEM of 1 donor with n=4-10 technical replicates. One-way ANOVA with Dunnet's posthoc test to DMSO control. * p<0.05; ** p<0.01; and *** p<0.001.
The ability of menin-MLL inhibitors to induce beta-cell (β-cell) proliferation is tested on human islet microtissue preparations (InSphero). Briefly, human islet microtissues are produced by enzymatic dissociation of the primary islet cells followed by controlled scaffold-free hanging-drop-based self-reaggregation of the islet cells (Misun et al., 2020, Adv. Biosyst. 2020, 4, 1900291). The process helps eliminate contaminating exocrine cells, while enabling homogenous and native-like distribution of endocrine cells within each islet microtissue. […]
Effects of the compound on beta cell function and proliferation were monitored following culturing of the islets in the presence or absence of compound for 1, 2 or 3 weeks. Proliferation of beta cells and is monitored via immunofluorescence staining for appropriate markers. […]

Assay [2] relates to KRAS mutated cell lines (CRC, NSCLC, pancreatic). The experiment in a line: KRAS mutant cell line proliferation (CellTiter-Glo, four days). Type of assay: cell-based, human. The conditions noted are these: for GI50: Homo sapiens. Here is the method: The inhibitory effect on cell proliferation was investigated in the human pancreas KRAS mutated cell lines MIA PaCa-2, HuP-T4, HPAF-II, human lung KRAS mutated cell line NCI-H358, and human colon KRAS mutated cell lines SW837, SW60, and NCI-H747. […] Cells were grown by adhering to culture flasks, and maintained at 70%-80% confluency.
ATP is present in all metabolically active cells and is considered as a marker for viable cells. […] The cell proliferation assay was performed using a 96-well plate format.
Eight concentrations of test compound were assessed in duplicate for each experimental run. 100% cell proliferation is represented by the untreated cells (0.2% DMSO).
200 μL of cell suspension were added to each well of a 96-well plate.
Cell viability was measured using CellTiterGlo. […] Cell viability was measured using CellTiter Glo.
For orientation: In ATP-based viability assays light output follows the ATP content of the culture.

Assay [3] concerns DLBCL cell lines (DHL, THL, DEL, GCB). The experiment in a line: DLBCL cell line proliferation (Cell Titer Glo, four days). Type of assay: cell-based. On the procedure: (§1) Compound A was tested against a THL cell line (VAL), and a DEL cell line (U2932). An expanded panel of DHL cell lines were tested for sensitivity to Compound A. Ex vivo patient samples of THL and MYC-amplified DLBCL were tested with Compound A. Sensitivity of THL and MYC-driven DLBCL in both in vitro and ex vivo models were compared with clinical reversible menin inhibitors. Compound A was tested against a panel of MM cell lines and ex vivo MM patient samples of p53del, 13qdel, and relapsed/refractory cases.
(§2) DLBCL cell line TOLEDO was cultured in the presence of Compound A or clinical reversible menin inhibitors for six and fourteen hours. Menin protein expression was reduced up to 60% at 1 μM by Compound A after fourteen hours compared to clinical reversible inhibitors at <20% at similar concentrations. Menin protein expression was measured by the Wes system and analyzed using the Compass software (automated western blotting, Protein Simple). Signal was normalized to GAPDH and referenced to DMSO control (FIG. 171E). DLBCL and MM cell lines were cultured with Compound A, bortezomib (PS-341), or DMSO for four days and cell proliferation was measured by Cell Titer Glo. Ex vivo studies of DLBCL and MM models were conducted by measurement of cell proliferation (Cell Titer Glo) after six days of treatment with Compound A, PS-341, or DMSO control.

For assay [4], the system named is patient-derived DLBCL Triple Hit Lymphoma (THL) and MYC-amplified PDX samples. Put plainly: Ex vivo DLBCL PDX samples (THL, MYC-amplified), six days. Type of assay: cell-based, human. The conditions noted are these: THL/R-CHOP-refractory and MYC amplification/R-EPOCH refractory profiles. Here is the method:
as §1, §2

For another assay, the system named is KRAS and MEN1 expression. Put plainly: RNA-seq gene expression in MiaPaCa-2 cells. Type of assay: cell-based, human. Also on record: dose or concentration left out as unconfirmed. Conditions: MiaPaCa-2 cells after twenty-four hours. Here is the method:
MOLM-13 and MiaPaCa-2 cells were incubated with Compound A for twenty-four hours and were analyzed by RNA-seq on an Illumina NextSeq 550 platform. […] Cell viability was measured using CellTiterGlo. Human ex vivo PDX tissue models harboring KRAS mutations were cultured with Compound A and clinical reversible menin inhibitors for six days. Cell viability was measured using CellTiter Glo.

Take `C=CC(=O)N[C@@H]1CCCN(Cc2ccnc(C(=O)Nc3ccc(-c4cc5c(N6CCOCC6)ncnc5[nH]4)cc3)c2)C1` [Compound A, N-[4-[4-(4-morpholinyl)-7H-pyrrolo[2,3-d]pyrimidin-6-yl]phenyl]-4-[[3(R)-[(1-oxo-2-propen-1-yl)amino]-1-piperidinyl]methyl]-2-pyridinecarboxamide]: the beta-cell proliferation result in assay [1] (glucose stress condition (8 mM glucose)) is “dose dependent increase”; in assay [1] (standard glucose conditions (5.5 mM glucose)), “not under standard glucose conditions”. In assay [1] (human islet microtissues, Day 14 and Day 21, compared to control), the “proliferating beta cell fraction” value was “induced human pancreatic islet beta cells substantially”. Besides, the GI50 is 360 to 570 nM in assay [2] (column 1: KRAS G12C, NSCLC (8), read-out: KRAS G12C GI50); 430 to 830 nM in assay [2] (column 5: RAS WT, Pancreatic (4), read-out: RAS WT GI50); 370 to 570 nM in assay [2] (column 8: KRAS G12D, Pancreatic (1) (second set of heads), read-out: KRAS G12D GI50). In addition, in assay [2] (all cancer cell types tested), the “growth inhibition of KRAS-mutated cell lines compared to a known KRAS therapeutic” value is recorded as “significantly greater growth inhibition”. This compound yielded an inhibition of growth in assay [2] (most of fourteen CRC, NSCLC and pancreatic KRAS mutated cell lines, four-day treatment) above 90%. Further, the cell lethality in assay [3] (DHL, THL, and DEL DLBCL cell lines, four days) is above 90%. In addition, in assay [3] (VAL, U2932), the “growth inhibition of THL and DEL cell line models” value is listed as “complete growth inhibition”. The “growth inhibition of ex vivo patient samples” value in assay [4] is “complete growth inhibition”. Moreover, in the assay with KRAS and MEN1 expression, the “KRAS and MEN1 expression levels” value is given as “marked reduction”.

The GI50 is the concentration at which growth is held to half of that of the control. One may read the inhibition of growth as the drop in the measured response relative to a control, in per cent.
